Data reported in PubChem BioAssay (NCI).
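Results reflect a 48-hour exposure of cells in 96-well plates to compound at five concentrations. TGI denotes the concentration required for complete inhibition of growth.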

Columns and labels:
Experiment in all cases: NCI anticancer screen, dose series, 48 h
UO-31 renal = tested on: UO-31 renal
SN12C renal = tested on: SN12C renal
HCC-2998 colon = tested on: HCC-2998 colon
K-562 leukemia = tested on: K-562 leukemia
MDA-N = tested on: MDA-N
MOLT-4 leukemia = tested on: MOLT-4 leukemia
HOP-62 NSCLC = tested on: HOP-62 NSCLC
OVCAR-3 ovarian = tested on: OVCAR-3 ovarian
BT-549 breast = tested on: BT-549 breast
SK-MEL-2 melanoma = tested on: SK-MEL-2 melanoma
SK-MEL-28 melanoma = tested on: SK-MEL-28 melanoma
OVCAR-4 ovarian = tested on: OVCAR-4 ovarian
KM12 colon = tested on: KM12 colon
NCI/ADR-RES ovarian = tested on: NCI/ADR-RES ovarian
HCT-15 colon = tested on: HCT-15 colon
OVCAR-5 ovarian = tested on: OVCAR-5 ovarian
NCI-H460 lung = tested on: NCI-H460 lung
OVCAR-8 ovarian = tested on: OVCAR-8 ovarian
SK-OV-3 ovarian = tested on: SK-OV-3 ovarian
HL-60(TB) leukemia = tested on: HL-60(TB) leukemia

Row | SMILES | TGI (UO-31 renal) | TGI (SN12C renal) | TGI (HCC-2998 colon) | TGI (K-562 leukemia) | TGI (MDA-N) | TGI (MOLT-4 leukemia) | TGI (HOP-62 NSCLC) | TGI (OVCAR-3 ovarian) | TGI (BT-549 breast) | TGI (SK-MEL-2 melanoma) | TGI (SK-MEL-28 melanoma) | TGI (OVCAR-4 ovarian) | TGI (KM12 colon) | TGI (NCI/ADR-RES ovarian) | TGI (HCT-15 colon) | TGI (OVCAR-5 ovarian) | TGI (NCI-H460 lung) | TGI (OVCAR-8 ovarian) | TGI (SK-OV-3 ovarian) | TGI (HL-60(TB) leukemia)
1 | N/C(CC/C(N)=N\O)=N\O | > 100 µM | > 100 µM | > 100 µM | > 100 µM | > 100 µM | > 100 µM | > 100 µM | > 100 µM | > 100 µM | > 100 µM | > 100 µM | > 100 µM | > 100 µM | > 100 µM | > 100 µM | > 100 µM | > 100 µM |  |  | 
2 | CSc1nc2c(c(N(C)C)n1)C=Nn1c(nc3ccccc31)S2 | > 100 µM | > 100 µM | > 100 µM | > 100 µM | > 100 µM | > 100 µM | > 100 µM | > 100 µM | > 100 µM | > 100 µM | > 100 µM | > 100 µM | > 100 µM | > 100 µM | > 100 µM | > 100 µM | > 100 µM | > 100 µM | > 100 µM | 
3 | COC(=O)c1ccc(CN2CCc3c([nH]c4ccccc34)C2CO)o1 (stereo unspecified) |  | > 10 µM | > 10 µM | > 10 µM | > 10 µM | > 10 µM | > 10 µM | > 10 µM | > 10 µM |  | > 10 µM | > 10 µM | > 10 µM |  | > 10 µM |  |  | > 10 µM | > 10 µM | > 10 µM
4 | O=c1cnn(C2OC(CO)C(O)C(F)C2O)c(=O)[nH]1 (stereo unspecified) | > 100 µM | > 100 µM | > 100 µM | > 100 µM | > 100 µM |  |  | > 100 µM | > 100 µM | > 100 µM | > 100 µM | > 100 µM | > 100 µM | > 100 µM | > 100 µM | > 100 µM | > 100 µM | > 100 µM | > 100 µM | > 100 µM
5 | C/C(=N\Nc1nc2cc(C)ccc2s1)c1ccccn1 | 11.1 µM | 8.85 µM | 28.5 µM |  | > 100 µM |  | 3.62 µM |  | > 69.1 µM | 1.35 µM | 12.1 µM | > 60.5 µM | 12.6 µM | 0.844 µM | 30.3 µM | 19.9 µM | 52.8 µM | 12.1 µM | 43.1 µM | 0.699 µM
6 | Cc1c2c(n3c(nc4ccccc43)c1C#N)N(c1ccc(Cl)cc1)CC2 | > 100 µM | > 100 µM | > 100 µM | > 100 µM | > 100 µM |  | > 100 µM | > 100 µM | > 100 µM | > 100 µM | > 100 µM | > 100 µM |  | > 100 µM | > 100 µM | > 100 µM | > 100 µM | > 100 µM | > 100 µM | > 100 µM
7 | COC(=O)Cc1c([C@@H]2Nc3ccccc3[C@H]2CC(=O)OC)[nH]c2ccccc12 | 81.6 µM | > 100 µM | > 100 µM | 77.7 µM | > 100 µM | 68.9 µM | > 100 µM | 42.8 µM | 75 µM | 34.8 µM | > 100 µM | > 100 µM |  | > 100 µM | > 100 µM | > 100 µM | 65.5 µM | > 100 µM | > 100 µM | 
8 | CN1CC(c2ccccc2)=Cc2c1ccc(N)c2N=N | > 100 µM | > 100 µM | > 100 µM | > 100 µM | > 100 µM | > 100 µM | > 100 µM | > 100 µM | > 100 µM | > 100 µM | > 100 µM | > 100 µM | > 100 µM | > 100 µM | > 100 µM | > 100 µM | > 100 µM | > 100 µM | > 100 µM | 
9 | Cc1c(C)c(C)c(-n2c(=O)n(C)c(=O)n2C(C)(C)C)c(C)c1C | > 100 µM | > 100 µM | > 100 µM | > 100 µM | > 100 µM | > 100 µM |  | > 100 µM | > 100 µM | > 100 µM | > 100 µM | > 100 µM | > 100 µM |  | > 100 µM | > 100 µM | > 100 µM |  | > 100 µM | > 100 µM
10 | C[N+]1(C)CC=C(N2CCOCC2)CC1 | > 10 µM | > 10 µM | > 10 µM | > 10 µM | > 10 µM | > 10 µM | > 10 µM | > 10 µM |  | > 10 µM | > 10 µM | > 10 µM | > 10 µM | > 10 µM | > 10 µM |  | > 10 µM | > 10 µM | > 10 µM | > 10 µM
11 | COc1ccc(CN2C(=O)CCC/C=C\[C@H]2CI)cc1 | 23.8 µM | 27 µM | 23.8 µM | > 100 µM | 25.8 µM | 25.6 µM | 31.1 µM | 23.7 µM | 33.7 µM | 23 µM | 25.2 µM | 22.8 µM | 23 µM | 28.2 µM | 24.9 µM | 24.5 µM | 25.7 µM | 27.5 µM | 30 µM | 
12 | C=C(NC(=O)C(=C)NC(=O)c1csc(C2=NC3c4csc(n4)C4NC(=O)c5csc(n5)C(C(C)(O)C(C)O)NC(=O)C5CSC(=N5)/C(=C/C)NC(=O)C(C(C)O)NC(=O)c5csc(n5)C3(CC2)NC(=O)C(C)NC(=O)C(=C)NC(=O)C(=C)NC(=O)C(C(C)C)NC2C=Cc3c(C(C)O)cc(nc3C2O)C(=O)OC4C)n1)C(N)=O (stereo unspecified) | > 100 µM | > 38 µM | > 58.1 µM | > 48.3 µM | > 100 µM |  | > 100 µM | > 100 µM | 7.88 µM | > 38.9 µM | > 62.1 µM | > 83.5 µM | > 100 µM | > 100 µM | > 63.4 µM | 28.2 µM | 59.7 µM | 8.75 µM | > 63.4 µM | 
13 | CCOC(=O)c1nc2c3c(ncn2n1)Oc1c(c(-c2ccccc2)nn1-c1ccccc1)C3c1ccc(OC)c(OC)c1 (stereo unspecified) | > 100 µM | > 100 µM | > 100 µM | > 100 µM | > 100 µM | > 100 µM | 48.5 µM | > 100 µM | > 100 µM | > 100 µM | > 100 µM | 30.4 µM |  | > 100 µM | > 100 µM | > 100 µM | > 100 µM | 82.5 µM | > 100 µM | 
